# Measured values: patent publication US9879008B2, “2,3,4,6-tetra-substituted benzene-1,5-diamine derivatives, preparation method therefor and medicinal use thereof” (SHANGHAI HAIYAN PHARMACEUTICAL TECHNOLOGY CO., LTD., priority 2014, dated 2018)
# Tests used:
# wild-type EGFR kinase = molecular target: T1, wild-type EGFR kinase (Homo sapiens, UniProt P00533); test: z-lyte inhibition test against wild-type EGFR kinase; format: biochemical; settings: 10 μM ATP, read-out: EGFR WT (IC50/nM);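 note: reaction volume 10 µL holding 0.8 ng/µL enzyme and 2 µM Tyr04 substrate, with DMSO at 2% once compounds are present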
# T1 construct: purchased Invitrogen PV3872
# T1 sequence (P00533 25-1210): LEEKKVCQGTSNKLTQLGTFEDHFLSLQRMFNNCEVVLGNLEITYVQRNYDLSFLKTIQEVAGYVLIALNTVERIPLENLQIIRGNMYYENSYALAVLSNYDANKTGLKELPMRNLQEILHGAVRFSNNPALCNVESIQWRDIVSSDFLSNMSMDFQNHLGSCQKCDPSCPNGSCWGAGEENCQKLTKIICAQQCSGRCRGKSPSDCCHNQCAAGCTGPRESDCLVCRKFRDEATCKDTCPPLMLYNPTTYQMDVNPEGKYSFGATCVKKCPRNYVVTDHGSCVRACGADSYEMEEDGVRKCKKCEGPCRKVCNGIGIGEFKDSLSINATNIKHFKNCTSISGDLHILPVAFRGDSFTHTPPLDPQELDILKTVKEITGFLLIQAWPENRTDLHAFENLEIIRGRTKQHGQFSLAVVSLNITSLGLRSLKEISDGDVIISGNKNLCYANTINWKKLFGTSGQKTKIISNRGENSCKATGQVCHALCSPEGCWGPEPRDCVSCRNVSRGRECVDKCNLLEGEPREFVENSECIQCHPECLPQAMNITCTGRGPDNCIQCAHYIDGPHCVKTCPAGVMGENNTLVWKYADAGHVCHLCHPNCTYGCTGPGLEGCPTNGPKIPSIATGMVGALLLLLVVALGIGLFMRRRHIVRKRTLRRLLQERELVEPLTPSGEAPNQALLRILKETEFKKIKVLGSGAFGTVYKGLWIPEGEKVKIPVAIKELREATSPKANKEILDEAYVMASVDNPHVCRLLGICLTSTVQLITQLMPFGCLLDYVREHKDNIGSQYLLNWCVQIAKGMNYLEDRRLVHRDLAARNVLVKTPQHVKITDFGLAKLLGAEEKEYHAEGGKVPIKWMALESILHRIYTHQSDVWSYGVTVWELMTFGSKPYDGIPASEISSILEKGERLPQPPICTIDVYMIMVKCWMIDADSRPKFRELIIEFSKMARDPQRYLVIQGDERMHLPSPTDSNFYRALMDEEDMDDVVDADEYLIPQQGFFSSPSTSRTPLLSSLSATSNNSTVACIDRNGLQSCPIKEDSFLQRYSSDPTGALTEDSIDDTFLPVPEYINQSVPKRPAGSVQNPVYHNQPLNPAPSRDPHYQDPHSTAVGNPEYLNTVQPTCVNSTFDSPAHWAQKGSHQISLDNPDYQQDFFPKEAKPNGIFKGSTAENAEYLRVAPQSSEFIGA
# H1975 cell = test: MTT cytostatic activity, H1975 cell; format: cell-based; settings: MTT; for IC50: Homo sapiens, NCI-H1975, 72 h, read-out: H1975 cell (IC50/nM); for Selective inhibitory activity against cells [IC50(A431 cell)/IC50(H1975 cell)]: ratio of cell IC50 values;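 for all read-outs here: cells in 96-well plates exposed to compound for 72 h, then given MTT for a further 4 h at 37 °C under 5% CO2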
# A431 cell = test: MTT cytostatic activity, A431 cell; format: cell-based; settings: Homo sapiens, A-431; MTT, 72 h; read-out: A431 cell (IC50/nM)
# NIH3T3 cell = test: MTT cytotoxicity against NIH3T3 cells; format: cell-based; settings: Mus musculus, NIH3T3; cytotoxicity, MTT, 72 h; read-out: MTT assay against NIH3T3 cell (IC50/nM)
# A431 cells = test: ELISA assay for cell activity, EGF-treated A431 cells; format: cell-based; settings: Homo sapiens, A-431, compound 1 h, then EGF 45 min;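 note: Serum-starved A431 cells, ELISA on lysates read as OD450 minus OD570, inhibition scaled between EGF-stimulated wells (0%) and unstimulated cell control (100%), DMSO 0.5% final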
# H1975 cells = test: ELISA assay for cell activity of EGFR T790M inhibitor, H1975 cells; settings: for Selective inhibitory activities against cell [IC50(A431 cell)/IC50(H1975 cell)]: ELISA, ratio of cell IC50 values; for IC50: Homo sapiens, NCI-H1975, 1 h, read-out: H1975 cell (IC50/nM)
IC50 (wild-type EGFR kinase),IC50 (H1975 cell),Selective inhibitory activity against cells [IC50(A431 cell)/IC50(H1975 cell)] (H1975 cell),IC50 (A431 cell),IC50 (A431 cells),Selective inhibitory activities against cell [IC50(A431 cell)/IC50(H1975 cell)] (H1975 cells),IC50 (H1975 cells),Compound,IC50 (NIH3T3 cell)
376 nM,92 nM,66.1,6080 nM,–,–,–,C=CC(=O)Nc1cc(Nc2ncc(Cl)c(OC3CN(CCF)C3)n2)c(OC)cc1N1CCC(N(C)C)CC1 [Compound J-54],> 10000 nM
17 nM,69 nM,47.3,3260 nM,–,–,–,C=CC(=O)Nc1cc(Nc2nccc(OC3CCCN(S(C)(=O)=O)CC3)n2)c(OC)cc1N(C)CCN(C)C (stereo not drawn) [Compound J-36],> 10000 nM
69 nM,138 nM,38.8,5350 nM,–,–,–,C=CC(=O)Nc1cc(Nc2nccc(OC3CN(C(C)=O)C3)n2)c(OC)cc1N1CCC(N(C)C)CC1 [Compound J-20],> 10000 nM
27 nM,4 nM,429,1720 nM,419 nM,84,5 nM,C=CC(=O)Nc1cc(Nc2ncc(C(F)(F)F)c(OC3CN(S(C)(=O)=O)C3)n2)c(OC)cc1N1CCC(N(C)C)CC1 [Compound J-31],> 3000 nM
49 nM,11 nM,286.3,3150 nM,649 nM,32.5,20 nM,C=CC(=O)Nc1cc(Nc2ncc(Cl)c(OC3CN(C(C)=O)C3)n2)c(OC)cc1N(C)CCN(C)C [Compound J-28],> 10000 nM
49 nM,17 nM,171.8,2920 nM,832 nM,64,13 nM,C=CC(=O)Nc1cc(Nc2ncc(Cl)c(O[C@H]3CCN(S(C)(=O)=O)C3)n2)c(OC)cc1N1CCC(N(C)C)CC1 [Compound J-46],> 10000 nM
69 nM,23 nM,98.3,2260 nM,991 nM,41.3,24 nM,C=CC(=O)Nc1cc(Nc2ncc(F)c(SC3CN(C(C)=O)C3)n2)c(OC)cc1N1CCC(N(C)C)CC1 [Compound J-58],> 10000 nM
227 nM,46 nM,160.5,7380 nM,2740 nM,28.2,97 nM,C=CC(=O)Nc1cc(Nc2ncc(Cl)c(O[C@@H]3CCN(C(C)=O)C3)n2)c(OC)cc1N1CCC(N(C)C)CC1 [Compound J-47],> 10000 nM
8 nM,121 nM,15.5,1880 nM,155 nM,1.2,129 nM,C=CC(=O)Nc1cc(Nc2nccc(OC3CN(c4cccnc4)C3)n2)c(OC)cc1N(C)CCN(C)C [Compound J-17],> 10000 nM
30 nM,184 nM,16.1,2960 nM,1100 nM,4.3,256 nM,C=CC(=O)Nc1cc(Nc2nccc(OC3CN(c4cnc5c(ccn5C)c4)C3)n2)c(OC)cc1N1CCC(N(C)C)CC1 [Compound J-18],–
39 nM,72 nM,60,4300 nM,1320 nM,11,123 nM,C=CC(=O)Nc1cc(Nc2ncc(Cl)c(OC3CCN(S(C)(=O)=O)CC3)n2)c(OC)cc1N1CCC(N(C)C)CC1 [Compound J-39],> 10000 nM
41 nM,–,–,–,388 nM,8.1,48 nM,C=CC(=O)Nc1cc(Nc2ncc(Cl)c(N[C@H]3CCCN(CCF)C3)n2)c(OC)cc1N1CCC(N(C)C)CC1 [Compound J-68],7600 nM
–,66 nM,15,989 nM,234 nM,3.3,70 nM,"C=CC(=O)Nc1cc(Nc2nccc(OC3CN(S(=O)(=O)c4ccccc4)C3)n2)c(OC)cc1N(C)CCN(C)C [Compound J-7, N-(2-((2-(dimethylamino)ethyl)(methyl)amino)-4-methoxy-5-(4-(1-(phenylsulfonyl)azetidine-3-oxy)pyrimidine-2-amino)phenyl)acrylamide]",> 10000 nM
80 nM,35 nM,82.8,2900 nM,2970 nM,57.2,52 nM,C=CC(=O)Nc1cc(Nc2ncc(Cl)c(OC3CCCN(C(C)=O)CC3)n2)c(OC)cc1N1CCC(N(C)C)CC1 (stereo not drawn) [Compound J-35],> 10000 nM
170 nM,66 nM,71,4670 nM,4490 nM,60,75 nM,C=CC(=O)Nc1cc(Nc2ncc(Cl)c(OC3CCN(C(C)=O)CC3)n2)c(OC)cc1N1CCC(N(C)C)CC1 [Compound J-38],> 10000 nM
6 nM,17 nM,64.5,1100 nM,156 nM,7,23 nM,C=CC(=O)Nc1cc(Nc2ncc(F)c(OC3CN(S(C)(=O)=O)C3)n2)c(OC)cc1N1CCC(N(C)C)CC1 [Compound J-29],> 10000 nM
47 nM,–,–,–,700 nM,15,47 nM,C=CC(=O)Nc1cc(Nc2ncc(F)c(O[C@H]3CCN(S(C)(=O)=O)C3)n2)c(OC)cc1N1CCC(N(C)C)CC1 [Compound J-52],> 10000 nM
14 nM,6 nM,162,971 nM,460 nM,35.4,13 nM,"C=CC(=O)Nc1cc(Nc2ncc(Cl)c(OC3CN(S(C)(=O)=O)C3)n2)c(OC)cc1N1CCN(C)CC1 [Compound J-70, N-(5-(5-chloro-4-(1-(methylsulfonyl)azetidine-3-oxy)pyrimidine-2-amino)-4-methoxy-2-(4-methylpiperazine-1-yl)phenyl)acrylamide]",> 10000 nM
20 nM,22 nM,52,1140 nM,383 nM,29.5,13 nM,"C=CC(=O)Nc1cc(Nc2ncc(Cl)c(OC3CCCN(S(C)(=O)=O)CC3)n2)c(OC)cc1N(C)CCN(C)C (stereo not drawn) [Compound J-1, N-(5-(5-chloro-4-(1-(methylsulfonyl)azacycloheptane-4-oxy)pyrimidine-2-amino)-2-((2-(dimethylamino)ethyl)(methyl)amino)-4-methoxylphenyl)acrylamide]",> 10000 nM
47 nM,50 nM,59,2950 nM,670 nM,7.1,95 nM,"C=CC(=O)Nc1cc(Nc2ncc(Cl)c(O[C@@H]3CCCN(S(C)(=O)=O)C3)n2)c(OC)cc1N(C)CCN(C)C [Compound J-40, (R)—N-(5-(5-chloro-4-(1-(methylsulfonyl)piperidine-3-oxy)pyrimidine-2-amino)-2-((2-(dimethylamino)ethyl)(methyl)amino)-4-methoxyphenyl)acrylamide]",> 10000 nM
–,359 nM,14.1,5060 nM,1760 nM,1.3,1340 nM,"C=CC(=O)Nc1cc(Nc2nccc(C3CN(c4cnc5c(cnn5C)c4)C3)n2)c(OC)cc1N(C)CCN(C)C [compound 2, reference compound]",–
–,31 nM,19.2,596 nM,–,–,–,"C=CC(=O)Nc1cc(Nc2nccc(OC3CN(S(C)(=O)=O)C3)n2)c(OC)cc1N1CCC(N(C)C)CC1 [Compound J-10, N-(2-(4-(dimethylamino)piperidine-1-yl)-4-methoxy-5-(4-(1-(methylsulfonyl)azetidine-3-oxy)pyrimidine-2-amino)phenyl)acrylamide]",> 10000 nM
